The results in this text go back to publication PMC10145360, “Antiplatelet Aggregation Properties of Cirsilineol: A Novel Inhibitor of Blood Coagulation Factor Xa” (Pharmaceuticals, 2023).

pKi: −log10 of the molar value. Marks after values point to notes of the source that are not given here.

In test [1] the test system is collagen and epinephrine-induced pulmonary thrombosis. Nature of the test: Acute pulmonary thrombosis induced by collagen and epinephrine. Format: in vivo, mouse. Particulars: for Mortality %: then collagen + epinephrine, mice; for Scored thrombus formation (Thrombi), lung: graded as thrombi per 25 mm^2 lung field. The protocol: Mice were separated into several groups after being fasted overnight (10 animals each). CSL was dissolved in DMSO and given intravenously to each mouse. After 1 h, the animals received an injection of collagen and epinephrine mixture (500 μg/kg each) to induce acute thrombosis. Each mouse was closely observed for 15 min to see if it had recovered from the acute thrombosis challenge, had been paralyzed, or had passed away. H&E-stained lung tissue slices from five mice were randomly selected for the histologic investigation to determine the extent of pulmonary thrombus development. The number of arteries greater than 20 μm in diameter with any detectable thrombus was counted in each of the five view fields randomly selected from the left lobe in each section (one section per mouse). Twenty-five fields for each group were compared as a result. A total of 60–80 vessels in each segment were imaged using the system (Leica, Germany). The results were graded as the number of thrombi per 25 mm^2 lung field as previously described.

Test [2] relates to platelet-poor plasma (PPP). Nature of the test: Ex vivo aPTT clotting time after intravenous injection. Type of test: in vivo, mouse. The settings on record: mice. The method, then: First, the potential cytotoxicity of […] on HUVECs was assessed using the 3-(4,5-dimethylthiazol-2-yl)-2,5-diphenyltetrazolium bromide (MTT) assay. […] The activated partial thromboplastin time (aPTT) and prothrombin time (PT), two coagulation parameters altered by CSL in vitro, were assessed first. We used the direct FXa inhibitor rivaroxaban as a positive control for our experiments. […] In the aPTT experiments, rivaroxaban at 8.38 μM and CSL at 7.23 μM, respectively, doubled the clotting time. Each mouse group (n = 5) received intravenous injections of CSL for 4 consecutive days to validate the in vitro results in an ex vivo experiment. […] In the ex vivo aPTT assays, treatment with CSL at 0.25 mg/kg and rivaroxaban at 0.29 mg/kg, respectively, doubled the clotting time. The average blood volume was determined to be 2 mL based on an estimated circulating blood volume for mice of 72 mL/kg and an average weight of 27 g for each animal used in this investigation. As a result, the estimated concentration of CSL in the peripheral blood after each injection ([…]) was 2.5, 5, 10, or 20 μM, respectively.
Figure 2 Effects of CSL on clotting time. (A) Platelet-poor plasma (PPP) was incubated with the indicated concentrations of CSL or rivaroxaban (Riva) for 15 min. (B) One hour after administering DMSO, CSL, or Riva, blood was collected from the mice, and PPP was obtained. Then, in vitro aPTT (A) or ex vivo aPTT was measured, as described in the Methods sections. Data are shown as mean values ± SD of five independent experiments. * p < 0.05 vs. D. D = 0.2% DMSO, used as the vehicle control.
Male C57BL/6 mice aged 7 weeks (mean weight: 27 g) were purchased from Orient Bio Co., in Sungnam, Republic of Korea, and were subjected to a 12-day acclimatization phase. […]
Plasma was taken by centrifuging blood (2000× g for 10 min) at room temperature following dimethyl sulfoxide (DMSO) or CSL administration for 1 h to assess PT and aPTT using a thrombotimer (Behnk Elektronik, Norderstedt, Germany). […] Next, the clotting time was measured.

The next test addresses T1, tPA (Homo sapiens, UniProt P00750).
T1 construct: purchased Haematologic Technologies (Essex Junction, VT, USA)
Nature of the test: Inhibitory constant, chromogenic substrate assay. Type of test: biochemical. The method, then: (§1) Ki values were calculated based on chromogenic substrate experiments. CSL was employed in each assay at a minimum of seven concentrations in duplicate to obtain an inhibition curve. A total of 50 μL of substrate was combined with 25 μL of each chemical solution, inhibitor solution, or blank buffer. Before the plate was allocated into the Labsystems IEMS microtiter plate reader (Cergy Pontoise, France), 25 μL of the enzyme solution was mixed. The plate was allowed for 1 h at 37 °C before analysis. We continuously observed the formation of p-nitroaniline produced when the substrate was hydrolyzed using spectrophotometry at 405 nm. The maximum initial reaction rates were computed as the millioptical density per minute. A Dixon plot of 1/Vmax versus inhibitor concentration was used to fit the curve and determine the Ki values.

Another test has as its target T2, α-Thrombin (Homo sapiens, UniProt P00734).
T2 construct: α-Thrombin; purchased Haematologic Technologies (Essex Junction, VT, USA)
Nature of the test: Inhibitory constant, chromogenic substrate assay. Type of test: biochemical. The protocol: as §1

In a further test the target is T3, Protein Ca (Homo sapiens, UniProt P04070).
T3 construct: purchased Haematologic Technologies (Essex Junction, VT, USA)
T3 sequence (P04070 212-450 limits assumed): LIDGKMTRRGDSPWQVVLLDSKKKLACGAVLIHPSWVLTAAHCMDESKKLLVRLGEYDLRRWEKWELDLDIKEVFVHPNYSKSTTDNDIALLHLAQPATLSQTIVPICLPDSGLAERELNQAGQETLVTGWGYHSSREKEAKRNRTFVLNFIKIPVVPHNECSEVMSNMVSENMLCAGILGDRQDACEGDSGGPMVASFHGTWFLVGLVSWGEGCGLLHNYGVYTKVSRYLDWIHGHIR
T3 sequence (P04070 43-197 partner limits assumed): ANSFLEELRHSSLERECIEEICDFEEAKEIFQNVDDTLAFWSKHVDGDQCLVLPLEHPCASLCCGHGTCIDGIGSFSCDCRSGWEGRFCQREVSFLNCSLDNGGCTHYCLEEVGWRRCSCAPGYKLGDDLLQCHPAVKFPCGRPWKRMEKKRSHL
Nature of the test: Inhibitory constant, chromogenic substrate assay. Format: biochemical. The method, then: as §1

Test [3] has as its system human umbilical vein endothelial cells (HUVECs). Nature of the test: NO and ET-1 production, ELISA. Type of test: cell-based. Particulars: ADP or U46619 treated. (In general: ELISA stands for enzyme-linked immunosorbent assay.)
A further test deals with T4, Factor Xa (Homo sapiens, UniProt P00742).
T4 construct: Factor Xa; purchased Haematologic Technologies (Essex Junction, VT, USA)
T4 sequence (P00742 235-488 limits assumed): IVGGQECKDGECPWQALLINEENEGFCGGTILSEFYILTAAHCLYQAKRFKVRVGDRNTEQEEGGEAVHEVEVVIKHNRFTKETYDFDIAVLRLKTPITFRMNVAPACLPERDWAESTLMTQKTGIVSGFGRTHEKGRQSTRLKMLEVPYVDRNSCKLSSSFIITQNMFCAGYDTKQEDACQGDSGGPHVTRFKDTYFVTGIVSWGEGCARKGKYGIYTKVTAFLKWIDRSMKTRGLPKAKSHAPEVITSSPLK
T4 sequence (P00742 41-179 partner limits assumed): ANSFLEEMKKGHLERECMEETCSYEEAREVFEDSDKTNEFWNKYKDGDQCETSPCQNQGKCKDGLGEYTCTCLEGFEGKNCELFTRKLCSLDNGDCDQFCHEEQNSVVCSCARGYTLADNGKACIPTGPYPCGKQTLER
Nature of the test: FXa amidolytic activity and inhibitory constant (chromogenic substrate). Format: biochemical. The protocol:
CSL was dissolved in 50 mM Tris buffer, which has a pH of 7.4, and was added to 150 μL of FXa solution (1 U/mL). This mixture was incubated for 1 min at 37 °C. Additionally, 150 μL of S-2222 solution (1.5 mM) was blended, and for 20 min, the changes in absorbance were observed spectrophotometrically at 405 nm. We used the slope of the curve (Vi) and the absorbance–time curve to determine enzyme activity. Equation (1) was used to compute the CSL inhibitory rates:Inhibitory rate (%) = (V0 − Vi)/V0 × 100(1) where Vi and V0 represent the slopes of the samples and the vehicle, respectively.
as §1

T1 sequence (P00750 36-562): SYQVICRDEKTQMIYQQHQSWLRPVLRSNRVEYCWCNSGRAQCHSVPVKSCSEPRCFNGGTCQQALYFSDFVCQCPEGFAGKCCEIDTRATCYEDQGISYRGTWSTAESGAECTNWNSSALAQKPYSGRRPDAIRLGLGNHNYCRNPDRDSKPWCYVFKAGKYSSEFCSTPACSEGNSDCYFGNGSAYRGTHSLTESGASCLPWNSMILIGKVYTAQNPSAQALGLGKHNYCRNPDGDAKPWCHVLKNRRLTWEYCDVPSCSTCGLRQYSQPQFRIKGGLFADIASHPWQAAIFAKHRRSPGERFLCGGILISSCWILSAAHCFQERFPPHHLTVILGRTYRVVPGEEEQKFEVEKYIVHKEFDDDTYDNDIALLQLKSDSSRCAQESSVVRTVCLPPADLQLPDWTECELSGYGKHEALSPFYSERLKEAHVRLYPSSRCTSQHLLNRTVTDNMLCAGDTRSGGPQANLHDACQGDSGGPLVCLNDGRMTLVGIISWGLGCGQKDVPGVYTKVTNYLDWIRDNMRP

As for `COc1cc(-c2cc(=O)c3c(O)c(OC)c(OC)cc3o2)ccc1O` [CSL, 4,5-dihydroxy-3,6,7-trimethoxyflavone], the Mortality % in test [1] (0.13 mg/kg intravenous) is given as 85 ^# %; in test [1] (0.26 mg/kg intravenous) it was 80 ^# %; in test [1] (0.51 mg/kg intravenous), 60 ^# %. Moreover, the “Scored thrombus formation (Thrombi), lung” value in test [1] (0.13 mg/kg intravenous) is 3.5 ± 0.1; in test [1] (0.26 mg/kg intravenous) it was 2.5 ± 0.1; in test [1] (0.51 mg/kg intravenous) it was 1.8 ± 0.2. The “dose that doubled the clotting time (ex vivo aPTT)” value in test [2] (intravenous) is listed as 0.25 mg/kg. The “blood clotting time ex vivo (aPTT)” value in test [2] (intravenous injections for 4 consecutive days) is “dramatically increased blood clotting time”. For the same molecule, the pKi on tPA is under 3.52; at α-Thrombin it was under 3.52; on Protein Ca it was under 3.52; at Factor Xa (Factor Xa, chromogenic substrate S-2222, Dixon plot) it was 5.43. Further, the “Ratio = Ki enzyme/Ki Factor Xa” value is over 100 on tPA, over 100 on α-Thrombin, over 100 at Protein Ca and 1 on Factor Xa (Factor Xa). For the same molecule, the NO secretion result in test [3] was “returned the decreased NO secretion caused by ADP or U46619 to their baseline levels”. Besides, the “production of ET-1” value in test [3] is recorded as “returned the increased production of ET-1”. The “Km value of FXa on S-2222” value at Factor Xa is on record as “increase”. Besides, the “Vmax of FXa on S-2222” value on Factor Xa was “decrease”. Moreover, on Factor Xa, the “selectivity ratio (based on Ki values) for FXa compared to other enzymes examined” value is reported as over 300. Besides, the “slope of Michaelis–Menten plot” value on Factor Xa (CSL 10 μM, FXa on S-2222) worked out at 0.568; at Factor Xa (CSL 20 μM, FXa on S-2222), 0.759. For the same molecule, at Factor Xa (FXa on S-2222), the “inhibitory pattern (Lineweaver–Burk plot)” value is recorded as “mixed-type inhibitory pattern”.

As a reminder, the pKi is the negative decadic logarithm of the Ki, by convention in mol/L. Read a high pKi as a low Ki.
